# Tests used:
# Test in all cases: relative viability (nuclei count vs DMSO), 5 days (fraction); higher = more cells survive
# AZD1208 + Palbociclib = compound: N[C@@H]1CCCN(c2c(/C=C3\SC(=O)NC3=O)cccc2-c2ccccc2)C1 [AZD1208] + CC(=O)c1c(C)c2cnc(Nc3ccc(N4CCNCC4)cn3)nc2n(C2CCCC2)c1=O [Palbociclib] (partner 0.5 µM)
# Summary of the method: (§1)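 The day after seeding in 1536-well plates, lung cancer cell lines were treated by pin tool with a single drug, or with a fixed anchor-drug dose together with five library-drug doses (not always all listed) in √10 steps. After 5 days, a combined fix-and-stain solution (final 0.05% Triton X-100, 1% formaldehyde, 1 ug/ml Hoechst) was added. Nuclei counted on 4× images gave relative viability as treated counts over vehicle counts, reported as the median of duplicate plates.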
# AZD1208 + AZD7762 = compound: N[C@@H]1CCCN(c2c(/C=C3\SC(=O)NC3=O)cccc2-c2ccccc2)C1 [AZD1208] + NC(=O)Nc1cc(-c2cccc(F)c2)sc1C(=O)N[C@H]1CCCNC1 [AZD7762] (partner 0.2 µM)
# Summary of the method: as §1
# XMD14-99 + Alpelisib = compound: CN1CCN(CC1)C2=CC(=C(C=C2)NC3=NC(=C(S3)C(=O)C4=C(C=CC=C4Cl)Cl)N)OC [XMD14-99] + Cc1nc(NC(=O)N2CCC[C@H]2C(N)=O)sc1-c1ccnc(C(C)(C)C(F)(F)F)c1 [Alpelisib] (partner 2 µM)
# Summary of the method: as §1
# AZD1208 + Bortezomib = compound: N[C@@H]1CCCN(c2c(/C=C3\SC(=O)NC3=O)cccc2-c2ccccc2)C1 [AZD1208] + CC(C)C[C@H](NC(=O)[C@H](Cc1ccccc1)NC(=O)c1cnccn1)B(O)O [Bortezomib] (partner 0.002 µM)
# Summary of the method: as §1
Cell Line,relative viability (AZD1208 + Palbociclib; first compound 0.08 µM),relative viability (AZD1208 + Palbociclib; first compound 0.253 µM),relative viability (AZD1208 + Palbociclib; first compound 0.8 µM),relative viability (AZD1208 + Palbociclib; first compound 2.53 µM),relative viability (AZD1208 + Palbociclib; first compound 8 µM),relative viability (AZD1208 + AZD7762; first compound 0.08 µM),relative viability (AZD1208 + AZD7762; first compound 0.253 µM),relative viability (AZD1208 + AZD7762; first compound 0.8 µM),relative viability (AZD1208 + AZD7762; first compound 2.53 µM),relative viability (AZD1208 + AZD7762; first compound 8 µM),relative viability (XMD14-99 + Alpelisib; first compound 0.08 µM),relative viability (XMD14-99 + Alpelisib; first compound 0.8 µM),relative viability (XMD14-99 + Alpelisib; first compound 2.53 µM),relative viability (XMD14-99 + Alpelisib; first compound 8 µM),relative viability (AZD1208 + Bortezomib; first compound 0.08 µM),relative viability (AZD1208 + Bortezomib; first compound 0.253 µM),relative viability (AZD1208 + Bortezomib; first compound 0.8 µM),relative viability (AZD1208 + Bortezomib; first compound 2.53 µM),relative viability (AZD1208 + Bortezomib; first compound 8 µM)
NCI-H522,0.915,1.09,0.896,0.942,0.76,0.773,0.892,0.756,0.747,0.584,,,,,,,,,
HCC-15,0.748,0.872,0.68,0.711,0.657,1.19,1.26,1.03,1.43,1.19,0.906,0.883,0.827,0.657,1.06,1.21,1.07,1.08,0.948
A-427,0.546,0.548,0.495,0.551,0.527,0.7,0.789,0.665,0.653,0.689,1.09,1.08,0.954,0.9,1,0.939,0.963,0.936,0.884
NCI-H23,0.491,0.478,0.462,0.477,0.356,0.245,0.251,0.243,0.228,0.29,0.608,0.657,0.69,0.491,1.01,1.07,0.926,1.14,0.634
NCI-H1734,0.312,0.32,0.313,0.325,0.255,0.499,0.543,0.469,0.465,0.425,0.659,0.704,0.738,0.584,0.831,1.05,0.811,0.991,0.611
NCI-H1993,0.595,0.578,0.439,0.544,0.432,0.679,0.654,0.629,0.757,0.579,0.63,0.731,0.601,0.59,,1.04,0.925,0.998,0.888
PC-3 [JPC-3],0.586,0.596,0.548,0.582,0.564,1.03,0.89,0.692,0.793,0.823,1.06,0.947,0.916,0.893,0.833,0.972,0.887,0.927,0.855
NCI-H1915,0.504,0.435,0.486,0.474,0.455,0.642,0.76,0.766,0.778,0.673,1.09,0.984,0.955,0.925,0.976,1.07,0.956,0.94,1.06
NCI-H1666,0.62,0.672,0.607,0.605,0.672,0.953,0.888,0.762,0.856,0.937,0.866,0.94,0.805,0.699,0.828,0.745,0.783,0.637,0.579
HCC-366,0.408,0.482,0.376,0.404,0.245,0.368,0.362,0.371,0.41,0.387,0.475,0.413,0.366,0.232,1.02,1.09,0.943,1.03,0.973
SK-MES-1,0.299,0.348,0.316,0.307,0.311,,,,,,0.924,0.909,0.851,0.591,,,,,
NCI-H727,0.597,0.628,0.64,0.614,0.56,0.586,0.708,0.502,0.441,0.518,0.553,0.513,0.447,0.407,0.641,0.895,0.804,0.882,0.697
RERF-LC-KJ,1.05,1.09,1,1.02,0.802,0.991,1.08,0.631,0.759,0.611,0.718,0.917,0.75,0.588,1.1,1.21,1.06,1,0.818
Calu-6,,,,,,,,,,,0.929,0.959,0.919,0.67,1.01,1.02,0.976,1.03,0.929
LC-2-ad,0.591,0.52,0.528,0.501,0.5,0.842,0.888,0.798,0.804,0.897,0.855,0.863,0.839,0.633,1.01,0.979,0.978,0.819,0.833
CAL-12T,0.501,0.483,0.569,0.434,0.448,0.621,0.624,0.621,0.596,0.905,1.49,1.13,1.15,1.03,1.32,1.03,0.887,1.03,1.18
SK-LU-1,0.341,0.373,0.375,0.421,0.401,,,,,,0.893,0.96,0.996,0.598,1.36,1.24,1.09,0.996,0.812
NCI-H1650,0.331,0.401,0.311,0.323,0.35,,,,,,,,,,0.201,0.19,0.226,0.199,0.192
BEN,0.565,0.446,0.472,0.505,0.431,0.749,0.578,0.562,0.503,0.478,0.94,0.936,0.854,0.801,0.796,0.763,0.495,0.636,0.475
NCI-H2170,0.401,0.455,0.368,0.357,0.247,0.911,0.923,0.821,0.796,0.424,0.771,0.762,0.854,0.734,,,,,
NCI-H1299,,,,,,,,,,,1.05,1.04,1.05,0.884,1.06,1.07,0.994,0.986,1.02
EBC-1,,,,,,,,,,,0.819,0.783,0.653,0.561,0.597,0.586,0.508,0.456,0.448

Cell Line,relative viability (AZD1208 + Palbociclib; first compound 0.08 µM),relative viability (AZD1208 + Palbociclib; first compound 0.253 µM),relative viability (AZD1208 + Palbociclib; first compound 0.8 µM),relative viability (AZD1208 + Palbociclib; first compound 2.53 µM),relative viability (AZD1208 + Palbociclib; first compound 8 µM),relative viability (AZD1208 + AZD7762; first compound 0.08 µM),relative viability (AZD1208 + AZD7762; first compound 0.253 µM),relative viability (AZD1208 + AZD7762; first compound 0.8 µM),relative viability (AZD1208 + AZD7762; first compound 2.53 µM),relative viability (AZD1208 + AZD7762; first compound 8 µM),relative viability (XMD14-99 + Alpelisib; first compound 0.08 µM),relative viability (XMD14-99 + Alpelisib; first compound 0.8 µM),relative viability (XMD14-99 + Alpelisib; first compound 2.53 µM),relative viability (XMD14-99 + Alpelisib; first compound 8 µM),relative viability (AZD1208 + Bortezomib; first compound 0.08 µM),relative viability (AZD1208 + Bortezomib; first compound 0.253 µM),relative viability (AZD1208 + Bortezomib; first compound 0.8 µM),relative viability (AZD1208 + Bortezomib; first compound 2.53 µM),relative viability (AZD1208 + Bortezomib; first compound 8 µM)
NCI-H2009,0.196,0.202,0.221,0.208,0.181,,,,,,1.14,1.13,1.13,0.968,1.01,1.09,0.968,0.832,1.02
NCI-H2342,0.494,0.456,0.494,0.548,0.456,0.553,0.417,0.461,0.474,0.409,,,,,,,,,
ChaGo-K-1,0.905,0.969,0.874,0.906,0.884,0.849,0.931,0.813,0.952,0.776,,,,,1.21,0.983,1.04,0.975,0.92
NCI-H661,0.418,0.394,0.428,0.414,0.4,,,,,,0.798,0.564,0.594,0.356,0.665,0.817,0.724,0.759,0.852
COR-L23,0.288,0.312,0.256,0.295,0.244,,,,,,0.768,0.749,0.515,0.301,0.927,1.11,0.888,1.02,0.929
COR-L 105,0.37,0.344,0.379,0.38,0.43,,,,,,0.851,0.849,0.823,0.806,0.712,1.01,0.807,0.544,0.673
LK-2,0.58,0.486,,0.294,0.266,0.307,0.167,,0.11,0.144,1.01,1.11,0.855,1.05,,,,,
NCI-H1944,0.314,0.304,0.295,0.311,0.251,0.494,0.693,0.442,0.5,0.395,0.902,0.867,0.805,0.755,,,,,
NCI-H1793,0.293,0.305,0.273,0.304,0.288,0.599,0.611,0.403,0.482,0.401,0.77,0.641,0.666,0.476,,,,,
NCI-H596,,,,,,1.17,1.07,1.01,1.01,0.666,0.503,0.587,0.477,0.568,0.578,0.857,0.98,1.01,0.878
A549,,,,,,,,,,,0.749,0.759,0.641,0.576,,,,,
NCI-H520,0.188,0.195,0.146,0.205,0.186,,,,,,0.83,0.843,0.83,0.707,0.597,0.718,0.311,0.428,0.399
NCI-H358,0.14,0.149,0.109,0.14,0.14,0.454,0.579,0.436,0.467,0.451,0.751,0.841,0.715,0.304,,,,,
NCI-H1563,,,,,,,,,,,0.85,0.894,0.957,0.869,0.829,0.811,0.958,0.754,0.765
NCI-H1395,0.598,0.653,0.572,0.62,0.521,0.39,0.401,0.377,0.448,0.367,1.07,1.17,1.05,0.883,,,,,
NCI-H2228,0.764,0.911,0.804,0.6,0.656,,,,,,0.927,0.528,0.492,0.188,1.15,1.15,0.865,,0.704
NCI-H2023,0.34,0.39,0.333,0.373,0.332,,,,,,0.614,0.527,0.646,0.534,0.888,1.02,0.983,0.695,0.849
SW 900,0.524,0.49,0.497,0.571,0.511,0.62,0.518,0.453,0.576,0.485,,,,,,,,,
IA-LM,,,,,,,,,,,0.72,0.638,0.515,0.456,0.648,0.708,0.876,0.724,0.746
SW 1573,0.264,0.268,0.265,0.346,0.259,,,,,,0.8,0.737,0.697,0.651,0.963,1.14,0.935,0.907,0.717
NCI-H1703,,,,,,0.116,0.0963,0.18,0.128,0.102,0.338,0.36,0.487,0.334,0.277,0.159,0.246,0.253,0.305
NCI-H1648,0.277,0.255,0.244,0.227,0.294,0.584,0.618,0.684,0.533,1.28,,,,,,,,,
